# Target: GST tagged truncated human mutant G2019S LRRK2 (Homo sapiens (Human), UniProt Q5S007, G2019S)
# Experiment: LRRK2 Km ATP LanthaScreen Assay
# Format: biochemical
# Conditions: G2019S LRRK2, 134 μM ATP (Km ATP), mean values
# Outline: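 Enzyme (GST-tagged, truncated) was preincubated with compound for 15 min at RT in 50 mM Tris pH 8.5, 10 mM MgCl2, 0.01% Brij-35, 1 mM EGTA, 2 mM DTT and 0.05 mM orthovanadate. Fluorescein-LRRKtide and 134 μM ATP (Km) were then added for 90 min. EDTA and Tb-anti-pERM antibody stopped the reaction; the TR-FRET 520/495 ratio gave 4-parameter IC50s, reported as mean pIC50.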
# Sequence of GST tagged truncated human mutant G2019S LRRK2 (Q5S007 970-2527 G2019S): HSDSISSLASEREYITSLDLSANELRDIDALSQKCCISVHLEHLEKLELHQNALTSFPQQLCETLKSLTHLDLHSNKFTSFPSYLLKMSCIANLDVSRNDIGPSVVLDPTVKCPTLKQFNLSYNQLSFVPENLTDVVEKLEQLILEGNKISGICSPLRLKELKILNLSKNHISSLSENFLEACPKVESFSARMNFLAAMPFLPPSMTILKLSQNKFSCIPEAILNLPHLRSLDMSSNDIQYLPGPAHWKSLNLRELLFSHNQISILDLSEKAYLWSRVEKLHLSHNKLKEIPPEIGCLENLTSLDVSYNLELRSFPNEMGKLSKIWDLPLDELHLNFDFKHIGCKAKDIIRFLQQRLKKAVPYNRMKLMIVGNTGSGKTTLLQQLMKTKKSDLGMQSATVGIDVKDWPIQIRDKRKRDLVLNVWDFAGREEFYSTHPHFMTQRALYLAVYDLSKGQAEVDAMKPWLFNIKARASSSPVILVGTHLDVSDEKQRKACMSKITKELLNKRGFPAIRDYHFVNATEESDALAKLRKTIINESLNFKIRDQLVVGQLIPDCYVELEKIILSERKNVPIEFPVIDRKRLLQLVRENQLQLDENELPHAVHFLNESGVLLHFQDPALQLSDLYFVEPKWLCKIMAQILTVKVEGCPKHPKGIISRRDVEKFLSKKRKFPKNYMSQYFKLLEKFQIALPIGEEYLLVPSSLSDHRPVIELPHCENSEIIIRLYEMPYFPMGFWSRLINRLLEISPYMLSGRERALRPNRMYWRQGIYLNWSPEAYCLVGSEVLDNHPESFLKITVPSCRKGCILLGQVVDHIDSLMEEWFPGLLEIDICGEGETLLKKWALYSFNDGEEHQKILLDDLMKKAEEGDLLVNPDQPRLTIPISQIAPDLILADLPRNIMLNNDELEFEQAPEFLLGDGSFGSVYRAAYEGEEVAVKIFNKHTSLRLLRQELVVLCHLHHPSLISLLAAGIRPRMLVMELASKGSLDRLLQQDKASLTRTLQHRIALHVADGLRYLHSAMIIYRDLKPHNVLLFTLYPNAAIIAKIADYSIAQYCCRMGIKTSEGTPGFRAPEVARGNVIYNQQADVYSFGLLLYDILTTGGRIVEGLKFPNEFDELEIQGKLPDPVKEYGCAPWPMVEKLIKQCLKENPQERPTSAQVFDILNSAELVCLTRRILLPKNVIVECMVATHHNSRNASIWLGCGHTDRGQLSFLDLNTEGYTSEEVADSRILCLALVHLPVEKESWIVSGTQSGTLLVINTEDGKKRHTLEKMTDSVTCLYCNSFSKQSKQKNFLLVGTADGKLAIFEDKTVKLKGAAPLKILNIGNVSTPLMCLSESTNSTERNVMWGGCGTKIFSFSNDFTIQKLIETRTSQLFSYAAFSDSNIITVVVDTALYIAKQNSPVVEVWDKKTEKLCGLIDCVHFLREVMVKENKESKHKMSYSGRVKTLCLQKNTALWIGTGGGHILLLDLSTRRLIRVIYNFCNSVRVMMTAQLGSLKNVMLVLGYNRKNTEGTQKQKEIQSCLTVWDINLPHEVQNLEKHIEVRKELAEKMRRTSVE
row,SMILES,LRRK2 pIC50
1,"Cc1cc(Nc2ncc3cc(C)c([C@H]4CCN([C@@H]5COC[C@@H]5O)C[C@@H]4F)cc3n2)n(C)n1 (single isomer, unassigned) [Ex-5.11, (3S,4S)(3S,4S) or (3S,4S)(3R,4R) or (3R,4R)(3S,4S) or (3R,4R)(3R,4R) 4-(4-{2-[(1,3-dimethyl-1H-pyrazol-5-yl)amino]-6-methylquinazolin-7-yl}-3-fluoropiperidin-1-yl)oxolan-3-ol]",8.57
2,"Cc1cc(Nc2ncc3cc(C)c([C@H]4CCN([C@H]5COC[C@H]5O)C[C@@H]4F)cc3n2)n(C)n1 (single isomer, unassigned) [Ex-5.12, (3S,4S)(3S,4S) or (3S,4S)(3R,4R) or (3R,4R)(3S,4S) or (3R,4R)(3R,4R) 4-(4-{2-[(1,3-dimethyl-1H-pyrazol-5-yl)amino]-6-methylquinazolin-7-yl}-3-fluoropiperidin-1-yl)oxolan-3-ol]",6.03
3,"Cc1cc(Nc2ncc3cc(C)c(C4CCN([C@]5(C)COC[C@@H]5O)CC4)cc3n2)n(C)n1 (single isomer, unassigned) [Ex-5.13, (3S,4S)(3S,4S) or (3S,4S)(3R,4R) or (3R,4R)(3S,4S) or (3R,4R)(3R,4R) 4-(4-{2-[(1,3-dimethyl-1H-pyrazol-5-yl)amino]-6-methylquinazolin-7-yl}piperidin-1-yl)-4-methyloxolan-3-ol]",9.00
4,"Cc1cc2cnc(Nc3cc(C(C)(C)C)nn3C)nc2cc1C1CCN([C@]2(C)COC[C@@H]2O)CC1 (single isomer, unassigned) [Ex-5.14, (3S,4S) or (3R,4R) 4-(4-{2-[(3-tert-butyl-1-methyl-1H-pyrazol-5-yl)amino]-6-methylquinazolin-7-yl}piperidin-1-yl)-4-methyloxolan-3-ol]",9.02
5,"Cc1cc2cnc(Nc3cc(C(F)(F)F)nn3C)nc2cc1C1CCN([C@]2(C)COC[C@@H]2O)CC1 (single isomer, unassigned) [Ex-5.15, (3S,4S) or (3R,4R) 4-methyl-4-[4-(6-methyl-2-{[1-methyl-3-(trifluoromethyl)-1H-pyrazol-5-yl]amino}quinazolin-7-yl)piperidin-1-yl]oxolan-3-ol]",8.42
6,"Cc1cc2cnc(Nc3cnn(C)c3C(F)(F)F)nc2cc1C1CCN([C@]2(C)COC[C@@H]2O)CC1 (single isomer, unassigned) [Ex-5.16, (3S,4S) or (3R,4R) 4-methyl-4-(4-(6-methyl-2-((1-methyl-5-(trifluoromethyl)-1H-pyrazol-4-yl)amino)quinazolin-7-yl)piperidin-1-yl)tetrahydrofuran-3-ol]",>9.20
7,"N#Cc1cc2cnc(Nc3cnn(C4CC4)c3Cl)nc2cc1[C@H]1CCN(C2COC2)C[C@@H]1F (single isomer, unassigned) [Ex-6.2, (3R,4R) or (3S,4S) 2-((5-chloro-1-cyclopropyl-1H-pyrazol-4-yl)amino)-7-(3-fluoro-1-(oxetan-3-yl)piperidin-4-yl)quinazoline-6-carbonitrile]",>9.20
8,"N#Cc1cc2cnc(Nc3cnn(C4CC4(F)F)c3Cl)nc2cc1[C@@H]1CCN(C2COC2)C[C@H]1F (single isomer, unassigned) [Ex-6.4, (R)(3S,4S) or (S)(3S,4S) or (R)(3R,4R) or (S)(3R,4R) 2-((5-chloro-1-(2,2-difluorocyclopropyl)-1H-pyrazol-4-yl)amino)-7-(3-fluoro-1-(oxetan-3-yl)piperidin-4-yl)quinazoline-6-carbonitrile]",9.18
9,"N#Cc1cc2cnc(Nc3cnn(C4CC4(F)F)c3Cl)nc2cc1[C@@H]1CCN(C2COC2)C[C@H]1F (single isomer, unassigned) [Ex-6.5, (R)(3S,4S) or (S)(3S,4S) or (R)(3R,4R) or (S)(3R,4R) 2-((5-chloro-1-(2,2-difluorocyclopropyl)-1H-pyrazol-4-yl)amino)-7-(3-fluoro-1-(oxetan-3-yl)piperidin-4-yl)quinazoline-6-carbonitrile]",>9.20
10,"N#Cc1cc2cnc(Nc3cnn(C4CC4(F)F)c3Cl)nc2cc1[C@H]1CCN(C2COC2)C[C@@H]1F (single isomer, unassigned) [Ex-6.6, (R)(3S,4S) or (S)(3S,4S) or (R)(3R,4R) or (S)(3R,4R) 2-((5-chloro-1-(2,2-difluorocyclopropyl)-1H-pyrazol-4-yl)amino)-7-(3-fluoro-1-(oxetan-3-yl)piperidin-4-yl)quinazoline-6-carbonitrile]",8.94
11,"N#Cc1cc2cnc(Nc3cnn(C4CC4(F)F)c3Cl)nc2cc1[C@H]1CCN(C2COC2)C[C@@H]1F (single isomer, unassigned) [Ex-6.7, (R)(3S,4S) or (S)(3S,4S) or (R)(3R,4R) or (S)(3R,4R) 2-((5-chloro-1-(2,2-difluorocyclopropyl)-1H-pyrazol-4-yl)amino)-7-(3-fluoro-1-(oxetan-3-yl)piperidin-4-yl)quinazoline-6-carbonitrile]",9.01
12,"Cc1c(Nc2ncc3cc(Cl)c(C4CCN(C5COCC5F)CC4)cc3n2)cnn1C1CC1 (single isomer, unassigned) [Ex-7.4, (3S,4S) or (3R,4R) or (3S,4R) or (3R,4S) 6-chloro-N-(1-cyclopropyl-5-methyl-1H-pyrazol-4-yl)-7-[1-(4-fluorooxolan-3-yl)piperidin-4-yl]quinazolin-2-amine]",>9.20
13,"CO[C@H]1COC[C@H]1N1CCC(c2cc3nc(Nc4cnn(C5CC5)c4C)ncc3cc2Cl)CC1 (single isomer, unassigned) [Ex-7.5, (3S,4S) or (3R,4R) 6-chloro-N-(1-cyclopropyl-5-methyl-1H-pyrazol-4-yl)-7-[1-(4-methoxyoxolan-3-yl)piperidin-4-yl]quinazolin-2-amine]",>9.20
14,"Cc1cc2cnc(Nc3cnn(C4CC4(F)F)c3C)nc2cc1[C@@H]1CCN(C2COCC2F)C[C@H]1F (single isomer, unassigned) [Ex-7.6]",>9.20
15,"Cc1cc2cnc(Nc3cnn(C4CC4)c3Cl)nc2cc1[C@@H]1CCN(C2COCC2F)C[C@H]1F (single isomer, unassigned) [Ex-7.9, (3S,4R)(3S,4S) or (3R,4S)(3S,4S) or (3R,4R)(3S,4S) or (3S,4S)(3S,4S) or (3S,4R)(3R,4R) or (3R,4S)(3R,4R) or (3R,4R)(3R,4R) or (3S,4S)(3R,4R) N-(5-chloro-1-cyclopropyl-1H-pyrazol-4-yl)-7-[3-fluoro-1-(4-fluorooxolan-3-yl)piperidin-4-yl]-6-methylquinazolin-2-amine]",9.04
16,"Cc1nsc(Nc2ncc3cc(Cl)c([C@@H]4CCN(C5CCOC5)C[C@H]4F)cc3n2)c1Cl (single isomer, unassigned) [Ex-8.20, (3S,4S)(S) or (3S,4S)(R) or (3R,4R)(S) or (3R,4R)(R) 6-chloro-N-(4-chloro-3-methyl-1,2-thiazol-5-yl)-7-[3-fluoro-1-(oxolan-3-yl)piperidin-4-yl]quinazolin-2-amine]",8.53
17,"Cc1nsc(Nc2ncc3cc(Cl)c([C@@H]4CCN(C5CCOC5)C[C@H]4F)cc3n2)c1Cl (single isomer, unassigned) [Ex-8.21, (3S,4S)(S) or (3S,4S)(R) or (3R,4R)(S) or (3R,4R)(R) 6-chloro-N-(4-chloro-3-methyl-1,2-thiazol-5-yl)-7-[3-fluoro-1-(oxolan-3-yl)piperidin-4-yl]quinazolin-2-amine]",8.44
18,"Cc1nsc(Nc2ncc3cc(Cl)c([C@H]4CCN(C5CCOC5)C[C@@H]4F)cc3n2)c1Cl (single isomer, unassigned) [Ex-8.22, (3S,4S)(S) or (3S,4S)(R) or (3R,4R)(S) or (3R,4R)(R) 6-chloro-N-(4-chloro-3-methyl-1,2-thiazol-5-yl)-7-[3-fluoro-1-(oxolan-3-yl)piperidin-4-yl]quinazolin-2-amine]",8.68

# Same assay, conditions: G2019S LRRK2, 134 μM ATP (Km ATP), mean values; read-out: LRRK2 pIC50 (converted)
row,SMILES,IC50 [nM]
1,"N#Cc1cc2cnc(Nc3cnn(C4CC4)c3Cl)nc2cc1[C@H]1CCN(C2COC2)C[C@@H]1F (single isomer, unassigned) [Ex-6.1, (3R,4R) or (3S,4S) 2-((5-chloro-1-cyclopropyl-1H-pyrazol-4-yl)amino)-7-(3-fluoro-1-(oxetan-3-yl)piperidin-4-yl)quinazoline-6-carbonitrile]",1.91
2,"CO[C@@H]1COC[C@]1(C)N1CCC(c2cc3nc(Nc4cnn(C5CC5)c4C)ncc3cc2Cl)CC1 (single isomer, unassigned) [Ex-7.3, (3S,4S) or (3R,4R) 6-chloro-N-(1-cyclopropyl-5-methyl-1H-pyrazol-4-yl)-7-(1-(4-methoxy-3-methyltetrahydrofuran-3-yl)piperidin-4-yl)quinazolin-2-amine]",11.7
3,"CC(n1ncc(Nc2ncc3cc(Cl)c(C4CCN(C5COC5)CC4)cc3n2)c1Cl)C(F)(F)F (single isomer, unassigned) [Ex-8.3, (S) or (R) 6-chloro-N-[5-chloro-1-(1,1,1-trifluoropropan-2-yl)-1H-pyrazol-4-yl]-7-[1-(oxetan-3-yl)piperidin-4-yl]quinazolin-2-amine]",< 0.631
4,"Cc1nsc(Nc2ncc3cc(Cl)c(C4CCN(C5CCOC5)CC4)cc3n2)c1Cl (single isomer, unassigned) [Ex-8.18, (S) or (R) 6-chloro-N-(4-chloro-3-methyl-1,2-thiazol-5-yl)-7-[1-(oxolan-3-yl)piperidin-4-yl]quinazolin-2-amine]",< 0.631
5,"Cc1nsc(Nc2ncc3cc(Cl)c(C4CCN(C5CCOC5)CC4)cc3n2)c1Cl (single isomer, unassigned) [Ex-8.19, (S) or (R) 6-chloro-N-(4-chloro-3-methyl-1,2-thiazol-5-yl)-7-[1-(oxolan-3-yl)piperidin-4-yl]quinazolin-2-amine]",1.15
